According to PubChem BioAssay (NCI):
Several values for one entry are separate records, joined by “and”; a condition that tells them apart may be missing. Equal entries are not always repeated.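 Cells were grown in 96-well plates and exposed to each compound for 48 hours at five concentrations; endpoints were interpolated linearly between bracketing concentrations, or set to the highest concentration if not reached. GI50 = concentration required for 50% inhibition of growth. TGI is the concentration that stops growth completely.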

Tested on: MDA-MB-468 breast
Experiment: NCI tumour cell line growth inhibition, 48 h

Structure (SMILES) | GI50 | TGI
CC[C@H](C)[C@H]1O[C@]2(C=C[C@@H]1C)C[C@@H]1C[C@@H](C/C=C(\C)[C@@H](O[C@H]3C[C@H](OC)[C@@H](O[C@H]4C[C@H](OC)[C@@H](NC)[C@H](C)O4)[C@H](C)O3)[C@@H](C)/C=C/C=C3\CO[C@@H]4[C@H](O)C(C)=C[C@@H](C(=O)O1)[C@]34O)O2 | 1460 nM | 3170 nM
N#Cc1cccc(NC(=O)c2cc(-c3ccc(F)cc3F)ccc2O)c1 | 1660 nM and 1450 nM | 5940 nM and 6400 nM
Cn1c2ccccc2c2c3[nH]c(=O)[nH]c(=O)c3c3c4ccccc4n(C)c3c21 | 3510 nM | 29100 nM
CC(C)(O)c1cncc(-c2ccc3ncc(C#N)c(N4CCc5cc(F)c(Cl)cc54)c3c2)c1 | 11800 nM | 30600 nM
Cc1cc(O)c(C(C)(C)C)cc1Sc1cc(C(C)(C)C)c(O)cc1C | 2090 nM | 5120 nM
O=C1/C(=C/c2ccc(O)cc2)CSc2ccc(Cl)cc21 | 4840 nM | 28000 nM
CN1CCN(c2ccc(Nc3nc(NCCCNS(=O)(=O)c4ccc(C(F)(F)F)cc4)c4sccc4n3)cc2)CC1 | 1730 nM | 3560 nM
O=S1(=O)N(CCNc2nccc(-c3c(-c4cccc(O)c4)nc4sccn34)n2)CCN1Cc1ccccc1 | 8460 nM | 27900 nM
CC[CH2][Sn]([Cl])([Cl])[CH2]CC.Oc1ccccc1C=NCCN=Cc1ccccc1O | 1510 nM | 3270 nM
COc1ccc(-c2nnc(COc3ccc(NC(=O)Nc4ccc(Cl)c(C(F)(F)F)c4)cc3F)o2)cc1 | 2270 nM | 8600 nM
O=C(/C(=C/c1cccc([N+](=O)[O-])c1)c1ccccc1)c1ccccc1 | 2700 nM | 8800 nM
Nc1nc(-c2cccc(Cl)c2)c(-c2ccc3ncccc3n2)s1 | > 15700 nM | > 25000 nM
Cc1c2cc(O)c(=O)cc-2oc2cc(O)c(O)cc12 | > 100000 nM | > 100000 nM
COc1ccc(OC)c(C(=O)c2oc3ccc(Br)cc3c2N)c1 | 206 nM | 5220 nM
CC1(C)N=C(N)N=C(N)N1c1ccc(OCc2ccc(S(=O)(=O)F)c(Cl)c2)c(Cl)c1 | 2290 nM | > 100000 nM
COc1cc(NS(=O)(=O)c2ccc(-c3cnc(C4CC4)o3)cc2)ccc1F | 122 nM | 11300 nM
C/C(=N\Nc1ccc(Cl)cn1)c1ccccn1 | 65.5 nM | 293 nM
CCOC(=O)c1c(C)nc2c(c1N)/C(=C/c1ccc(OC)cc1)C(=O)N2Cc1ccc(F)cc1 | 194 nM | 650 nM
COc1ncc(-c2ccc3ncnc(Nc4cccc(Cl)c4)c3c2)cc1NS(=O)(=O)CCN1CCOCC1 | < 10 nM | 437 nM
CCCCCN(CCCCC)CC(O)c1ccc(Cl)c2ccccc12 (stereo not drawn) | 11100 nM | 24000 nM

Structure (SMILES) | GI50 | TGI
CCc1oc2ccccc2c1C(=O)c1cc(I)c(O)c(I)c1 | 2380 nM | 8500 nM
O=C(/C=C\n1cnc(-c2cc(C(F)(F)F)cc(C(F)(F)F)c2)n1)NNc1cnccn1 | 92.3 nM | 657 nM
COc1cc(/C=C2\CCCC3=C2NC(C)=NC3c2cc(OC)c(OC)c(OC)c2)cc(OC)c1OC (stereo not drawn) | 1180 nM | 3910 nM
COc1ccc2nc3cc(Cl)ccc3c(NCCN)c2c1 | 1840 nM | 3790 nM
COC(=O)C12C3C4C1C1C2C3C41NC(=O)c1csc([C@@H](C[C@H](C(C)C)N(C)C(=O)[C@@H](NC(=O)[C@H]2CCCCN2C)C2CC2)OC(C)=O)n1 (stereo partly drawn) | 19.8 nM | 31500 nM
CC(C)(C)c1cc(NC(=O)Cc2ccc(-c3cnc4cc(-c5cnn(CCN6CCOCC6)c5)ccc4n3)cc2)no1 | 700 nM and 796 nM and 111 nM | 50000 nM and > 100000 nM and > 3000 nM
C=C(C)C1CCC2(C(=O)O)CCC3(C)C(CCC4C5(C)CCC(OC(=O)NCc6ccccc6)C(C)(C)C5CCC43C)C12 (stereo not drawn) | 1730 nM | 34700 nM
CCN(CC)CCCC(C)Nc1cnc(C(=O)Nc2cccc3ccc(OC)nc23)cn1 (stereo not drawn) | 1580 nM | 3190 nM
C=C[C@H]1C[C@@H]2C[C@@H]3[C@H]4C/C=C\C(=O)NCCCC5NC(=O)C(=C(O)/C=C/[C@@H]4CC(=O)[C@H]3[C@@H]2[C@H]1C)C5=O (stereo partly drawn) | 1590 nM | 3090 nM
COC(=O)[C@H](Cc1c[nH]c2ccccc12)NC(=O)[C@@H](OC)[C@@H]1Cc2cc3cc(OC4CC(OC5CC(O)C(O)C(C)O5)C(O)C(C)O4)c(C)c(O)c3c(O)c2C(=O)[C@H]1OC1CC(OC2CC(OC3CC(C)(O)C(O)C(C)O3)C(O)C(C)O2)C(O)C(C)O1 (stereo partly drawn) | 3.21 nM | 11 nM
Fc1ccc(-c2nn3ncccc3c2-c2ccnc(Nc3ccc4c(c3)OCCO4)n2)cc1 | 624 nM | 3240 nM
Cc1ccc(C(=O)Nc2ccc(CN3CCN(C)CC3)c(C(F)(F)F)c2)cc1C#Cc1cnc(N)c2ccccc12 | 620 nM | 1640 nM
Cc1ccc2c3c(c(=O)[nH]c2c1)C1(C(C#N)=C(N)O3)c2cc(Br)ccc2-c2ccc(Br)cc21 | 1640 nM | 3550 nM
CON(C)C(=O)N1N=C(c2cc(F)ccc2F)SC1(CCCN)c1ccccc1 (stereo not drawn) | < 10 nM | 1570 nM and 456 nM
Cc1ccc(NC(=O)NCCCOc2ccc(N3C(N)=NC(N)=NC3(C)C)cc2Cl)cc1S(=O)(=O)F | 17300 nM | > 100000 nM
C=C1C(=O)O[C@H]2[C@H]1CC/C(COC(=O)c1cc3ccccc3s1)=C\CC[C@@]1(C)O[C@@H]21 | 1630 nM | 3950 nM
Cc1ccc(NC(=O)c2sc3nc(C)c(C(O)c4ccccc4)cc3c2N)cc1 (stereo not drawn) | 349 nM | 50700 nM
CCCn1cnc2c(c1=N)C(c1ccc(F)cc1)c1sc3c(C)cccc3c1O2 (stereo not drawn) | 1290 nM | 19200 nM
COC(=O)c1c(C)[nH]c(/C=C2\N=C(c3ccc[nH]3)C=C2OC)c1C | 1200 nM | 2730 nM
